Where two headings read alike, the source gives them in different places. Where a SMILES comes first, the peptide text is derived from it. Bridges are numbered along the chain shown (N, C = ends). [ ]: non-standard residue; d: D form. Oic = O=C(O)[C@@H]1C[C@@H]2CCCC[C@@H]2N1; tBuAla = CC(C)(C)C[C@H](N)C(=O)O; Pen = CC(C)(S)[C@H](N)C(=O)O; NMeC = CN[C@@H](CS)C(=O)O; Orn = NCCC[C@H](N)C(=O)O; Dap = NC[C@H](N)C(=O)O; Ahx = NCCCCCC(=O)O
Tests used:
[1] = target: human MASP2 (Homo sapiens (Human), UniProt O00187); experiment: Biochemical human MASP2 assay (FRET substrate); settings: Average IC50; recombinant human MASP2; read-out: human MASP2 IC50
How it was run: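 Mature recombinant human MASP2, expressed in HEK293 and purified by Ni-NTA affinity, was reacted with a DABCYL FRET peptide substrate (added as a 60 μM solution) for 60-120 min at 32 C. Fluorescence increase was read at ex 340/em 490 nm; IC50 was derived from % inhibition versus compound concentration.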

[2] = tested on: Human C3-DEPOSITION SERUM; experiment: C3 deposition assay, human serum on mannan-coated plates; format: biochemical
Method: 3. C3 Deposition Assay (Human, Rat, Mouse, Dog, Pig))
The C3 deposition assay was conducted essentially as described (reference). Multiwell plates (Greiner-Nunc 384 Maxi Sorp #464718) were coated over night with Mannan from Saccharomyces cerevisiae (Sigma M7504, 10 μg/mL in 0.05 M carbonate-bicarbonate buffer, pH 9.6) at 4° C. Wells were washed three times with TBS and subsequently incubated for 2 hours with 50 μL of 1% bovine serum albumin (BSA) in Tris-buffered saline (TBS) at 37° C. in order to block non-specific binding. After this step and each of the following incubation steps wells were washed three times with C3 wash buffer (TBS; 0.05% Tween 20; 5 mM CaCl2). […] When appropriately developed the color reaction was stopped by addition of 25 μL of stop solution (Sigma S5814) and quantified on a photometer by measuring absorption at a wavelength of 450 nm. Antibodies were diluted in C3 wash buffer supplemented with 0.5% BSA.

[3] = target: human MASP1 (Homo sapiens (Human), UniProt P48740); experiment: Biochemical human MASP1 assay (FRET substrate); settings: Average IC50; recombinant human MASP1; read-out: human MASP1 IC50
How it was run: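 Recombinant human MASP1 (aa 297-699, C-terminal His tag, HEK293-expressed, Ni-NTA purified) diluted to 20 nM in 50 mM HEPES pH 8,0, 100 mM NaCl, 0,01% CHAPS, 0.5 mM glutathione, preincubated with compound in DMSO; reaction started with 20 μM ABZ/Dnp FRET substrate solution. Fluorescence (ex 320/em 420 nm) after 60-120 min at 32 C; IC50 from % inhibition.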

[4] = target: rat MASP1 (Rattus norvegicus (Rat), UniProt Q8CHN8); experiment: Biochemical rat MASP1 assay (FRET substrate); settings: Average IC50; recombinant rat MASP1; read-out: rat MASP1 IC50
Excerpt: A truncated cDNA sequence of rat MASP1encoding the fragment corresponding to the amino acids 302-704 with a C-terminal His Tag and N-terminal Ig-kappa secretion signal (SEQ ID No: 4) was subcloned into the mammalian expression vector pcDNA3.1 (Invitrogen).
(§1) The MASP1 or MASP2 expression vectors were transfected into the HEK293 (ATCC No. CRL-1573) cell line using Lipofectamine LTX® Reagent (Thermo-Fischer), as described by the manufacturer. The mature form of the recombinant rat MASP1 and MASP2 proteases were secreted into the culture medium. The MASP1 and MASP2 proteins were purified from the conditioned media by affinity chromatography on Ni-NTA Superflow resin (Qiagen) as described by the manufacturer.
4.2 Biochemical Rat MASP1 Assay.
Recombinant rat MASP1 enzyme produced in the HEK 293 cells was diluted in the reaction buffer (50 mM HEPES pH 8,0; 100 mM NaCl; 0,01% CHAPS; 0.5 mM Gluthathione) to the concentration of 4 nM and 25 μl was transferred into each single well of 384-well white microtiter plate (Greiner Bio One 781075). 1 μl of the inhibitor compound solution (dissolved in DMSO, at the corresponding concentration) or pure DMSO as a control was added to the same wells. The enzymatic reaction was initiated by addition of 25 μl of 40 μM solution of the FRET substrate Dabcyl-[…]-Glu(Edans)-NH2; (Dabcyl-4-((4-(dimethylamino)phenyl)azo)benzoic acid; Edans-5-[(2-Aminoethyl) amino]naphthalene-1-sulfonyl; custom synthesis by Jerini Peptide Technologies, Berlin) in the reaction buffer. The microtiter plate was incubated for 60-120 min at the temperature of 32 C. The increase of fluorescence intensity was measured in appropriate fluorescence plate reader (e.g. TECAN Ultra) using excitation wavelength of 340 nm and emission wavelength of 490 nm. IC50 values were calculated from percentage of inhibition of rat […] activity as a function of test compound concentration.

[5] = target: rat MASP2 (Rattus norvegicus (Rat), UniProt Q9JJS8); experiment: Biochemical rat MASP2 assay (FRET substrate); settings: Average IC50; recombinant rat MASP2; read-out: rat MASP2 IC50
Excerpt: as §1, with “The mature form of the recombinant rat MASP1 and MASP2 proteases were secreted into the culture medium.” left out, “M[…]” for “MASP2 proteins”

[6] = Average IC50, read-out: Human C3-DEPOSITION SERUM IC50

Sequence of human MASP1 (P48740 other isoform, or with tags, fused parts or gaps): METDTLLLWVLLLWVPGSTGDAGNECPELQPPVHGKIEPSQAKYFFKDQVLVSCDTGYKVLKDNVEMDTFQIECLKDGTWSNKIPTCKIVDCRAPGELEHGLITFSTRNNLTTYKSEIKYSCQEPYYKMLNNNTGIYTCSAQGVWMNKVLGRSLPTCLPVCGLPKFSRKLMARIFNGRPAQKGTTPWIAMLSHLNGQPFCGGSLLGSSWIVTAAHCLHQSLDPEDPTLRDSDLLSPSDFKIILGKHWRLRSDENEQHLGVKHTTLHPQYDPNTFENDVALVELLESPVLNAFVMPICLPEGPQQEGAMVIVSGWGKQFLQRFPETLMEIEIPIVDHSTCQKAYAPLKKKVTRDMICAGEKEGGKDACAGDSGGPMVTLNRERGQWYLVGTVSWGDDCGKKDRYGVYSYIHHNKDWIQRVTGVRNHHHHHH
Sequence of human MASP2 (O00187 other isoform, or with tags, fused parts or gaps): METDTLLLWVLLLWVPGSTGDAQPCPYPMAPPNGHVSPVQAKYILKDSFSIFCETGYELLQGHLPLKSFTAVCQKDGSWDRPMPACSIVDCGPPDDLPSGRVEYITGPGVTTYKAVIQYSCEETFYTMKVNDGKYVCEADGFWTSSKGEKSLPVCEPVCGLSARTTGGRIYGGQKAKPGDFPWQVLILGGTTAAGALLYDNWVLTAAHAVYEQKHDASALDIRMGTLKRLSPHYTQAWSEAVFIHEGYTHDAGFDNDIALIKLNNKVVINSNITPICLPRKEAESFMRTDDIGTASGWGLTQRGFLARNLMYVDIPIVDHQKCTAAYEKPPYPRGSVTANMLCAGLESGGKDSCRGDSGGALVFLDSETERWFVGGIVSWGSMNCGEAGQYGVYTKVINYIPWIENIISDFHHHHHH
Sequence of rat MASP1 (Q8CHN8 other isoform, or with tags, fused parts or gaps): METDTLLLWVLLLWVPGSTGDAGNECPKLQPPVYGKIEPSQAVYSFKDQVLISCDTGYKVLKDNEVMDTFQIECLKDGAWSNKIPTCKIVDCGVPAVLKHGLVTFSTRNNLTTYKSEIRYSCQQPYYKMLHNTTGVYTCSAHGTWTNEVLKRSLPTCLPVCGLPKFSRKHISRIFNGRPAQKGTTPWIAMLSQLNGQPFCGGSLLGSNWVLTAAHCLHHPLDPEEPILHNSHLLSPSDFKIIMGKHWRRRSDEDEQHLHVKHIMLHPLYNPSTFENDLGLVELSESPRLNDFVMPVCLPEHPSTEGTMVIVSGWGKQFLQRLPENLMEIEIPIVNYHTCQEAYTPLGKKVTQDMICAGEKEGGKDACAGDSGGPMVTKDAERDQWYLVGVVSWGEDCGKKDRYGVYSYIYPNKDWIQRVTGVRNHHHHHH
Sequence of rat MASP2 (Q9JJS8 other isoform, or with tags, fused parts or gaps): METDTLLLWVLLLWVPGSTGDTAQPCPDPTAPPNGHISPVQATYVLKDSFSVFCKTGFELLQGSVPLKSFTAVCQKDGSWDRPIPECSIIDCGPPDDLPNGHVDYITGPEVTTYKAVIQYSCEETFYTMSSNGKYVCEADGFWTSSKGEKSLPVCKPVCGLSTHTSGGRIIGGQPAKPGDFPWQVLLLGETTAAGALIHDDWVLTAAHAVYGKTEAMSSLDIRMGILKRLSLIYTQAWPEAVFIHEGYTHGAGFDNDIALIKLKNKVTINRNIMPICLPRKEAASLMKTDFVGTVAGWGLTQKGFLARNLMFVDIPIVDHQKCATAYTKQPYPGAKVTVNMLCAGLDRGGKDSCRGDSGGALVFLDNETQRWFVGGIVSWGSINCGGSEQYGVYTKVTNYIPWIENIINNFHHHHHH

SMILES | IC50 [1] [nM] | IC50 [3] [nM] | IC50 [4] [nM] | IC50 [5] [nM] | IC50 [2, 6] [nM] | IC50 ([2]; Average IC50, read-out: Human C3-[…] IC50) [nM]
CC[C@H](C)[C@@H]1NC(=O)[C@@H]2CCCN2C(=O)[C@@H]2CCCN2C(=O)[C@H](CC(C)(C)C)NC(=O)[C@H](CO)NC(=O)[C@H](CCCNC(=N)N)NC(=O)[C@H](CO)NC(=O)[C@@H]2CSSC(C)(C)[C@H](NC1=O)C(=O)N[C@@H]([C@@H](C)CC)C(=O)N1CCC[C@H]1C(=O)NCCCCCC(=O)NC[C@H]1CC[C@@H](CC1)C(=O)N[C@@H]([C@@H](C)CC)C(=O)N2 [Example 59, N-{3-[(1R,4S,7S,13S,19S,22S,25S,28S,31R,34S,37S,40S,51S,57S)-4,34,57-tri[(2S)-butan-2-yl]-19-(2,2-dimethylpropyl)-22,28-bis(hydroxymethyl)-60,60-dimethyl-3,6,12,18,21,24,27,30,33,36,43,50,56,59-tetradecaoxo-61,62-dithia-2,5,11,17,20,23,26,29,32,35,42,49,55,58-tetradecaazahexacyclo[29.28.4.2^37,400.0^7,110.0^13,170.0^51,55]pentahexacontan-25-yl]propyl}guanidine] | 5.7 | 11 | 48.6 | – | – | 177
CC[C@H](C)[C@@H]1NC(=O)[C@@H]2CSSC[C@H](NC(=O)[C@H](Cc3ccc(O)cc3)NC(=O)CNC(=O)[C@H](CC(=O)O)NC(=O)[C@@H]3CCCN3C1=O)C(=O)N[C@@H](CO)C(=O)N[C@@H](CCCNC(=N)N)C(=O)N[C@@H](CO)C(=O)N[C@@H](Cc1ccc(O)cc1)C(=O)N1CCC[C@H]1C(=O)N1CCC[C@H]1C(=O)N[C@@H](C(C)C)C(=O)N2 [Ref. No 8, reference compound] (cyclo(CIPDGYCSRSYPPV); disulfide 1-7) | – | 8130 | 1000 | 126 | – | –
CC[C@H](C)[C@@H]1NC(=O)[C@H](C)NC(=O)CNC(=O)C[C@@H](C(N)=O)NC(=O)[C@@H]2CCCN2C(=O)[C@H]([C@@H](C)CC)NC(=O)[C@@H]2CSSC[C@H](NC1=O)C(=O)N[C@@H](CO)C(=O)N[C@@H](CCCNC(=N)N)C(=O)N[C@@H](CO)C(=O)N[C@@H](CC(C)C)C(=O)N1CCC[C@H]1C(=O)N1CCC[C@H]1C(=O)N[C@@H]([C@@H](C)CC)C(=O)N2 [Example 37] (GAICSRSLPPICIPD-NH2; disulfide 4-12; lactam N-15) | 140 | 16 | – | – | 59.4 | –
CC[C@H](C)[C@@H]1NC(=O)[C@H]2NC(=O)[C@H]([C@@H](C)CC)NC(=O)[C@@H]3CCCN3C(=O)[C@@H]3CCCN3C(=O)[C@H](CC(C)(C)C)NC(=O)[C@H](CO)NC(=O)[C@H](CCCNC(=N)N)NC(=O)[C@H](CO)NC(=O)[C@H](CSSC2(C)C)NC(=O)[C@H]([C@@H](C)CC)NC(=O)[C@@H](N)CCCCNC1=O [Example 67, N-{3-[(5aS,11S,14S,17S,20S,23R,26S,29S,36S,39R,42S,44aS)-29-amino-26,36,42-tri[(2S)-butan-2-yl]-11-(2,2-dimethylpropyl)-14,20-bis(hydroxymethyl)-45,45-dimethyl-5,10,13,16,19,22,25,28,35,38,41,44-dodecaoxodotetracontahydro-1H,5H-23,39-(methanodithiomethano)dipyrrolo[2,1-1:2′,1′-o][1,4,7,10,13,16,19,22,25,28,31,34]dodecaazacyclotetracontin-17-yl]propyl}guanidine] (H-KICSRS[tBuAla]PPI[Pen]I; lactam 1-C; disulfide 3-11) | 150 | 3.25 | – | – | 19.1 | –
CC[C@H](C)[C@@H]1NC(=O)[C@H]2NC(=O)[C@H]([C@@H](C)CC)NC(=O)[C@@H]3CCCN3C(=O)[C@@H]3CCCN3C(=O)[C@H](CC(C)(C)C)NC(=O)[C@H](CO)NC(=O)[C@H](CCCNC(=N)N)NC(=O)[C@H](CO)NC(=O)[C@H](CSSC2(C)C)NC(=O)[C@H]([C@@H](C)CC)NC(=O)[C@@H](N)CCCNC1=O [Example 66, N-{3-[(5aS,11S,14S,17S,20S,23R,26S,29R,35S,38S,41S,43aS)-29-amino-26,35,41-tri[(2S)-butan-2-yl]-11-(2,2-dimethylpropyl)-14,20-bis(hydroxymethyl)-44,44-dimethyl-5,10,13,16,19,22,25,28,34,37,40,43-dodecaoxodotetracontahydro-5H-23,38-(methanodithiomethano)dipyrrolo[2,1-1:2′,1′-o][1,4,7,10,13,16,19,22,25,28,31,34]dodecaazacyclononatriacontin-17-yl]propyl}guanidine] (H-[Orn]ICSRS[tBuAla]PPI[Pen]I; lactam 1-C; disulfide 3-11) | 22 | 8.1 | – | – | 25.8 | –

Second part, led by results:

IC50 [1] [nM] | IC50 [3] [nM] | IC50 [4] [nM] | IC50 [5] [nM] | IC50 [2, 6] [nM] | SMILES | IC50 ([2]; Average IC50, read-out: Human C3-[…] IC50) [nM]
29 | 19 | 79 | 16 | – | CC[C@H](C)[C@@H]1NC(=O)CNC(=O)CCCCCNC(=O)[C@H](CC(=O)O)NC(=O)[C@@H]2CCCN2C(=O)[C@H]([C@@H](C)CC)NC(=O)[C@H]2NC(=O)[C@H]([C@@H](C)CC)NC(=O)[C@@H]3CCCN3C(=O)[C@@H]3CCCN3C(=O)[C@H](CC(C)(C)C)NC(=O)[C@H](CO)NC(=O)[C@H](CCCNC(=N)N)NC(=O)[C@H](CO)NC(=O)[C@H](CSSC2(C)C)NC1=O [Example 28] (cyclo([Ahx]GICSRS[tBuAla]PPI[Pen]IPD); disulfide 4-12) | –
1000 | 27 | – | – | 46.3 | CC[C@H](C)[C@@H]1NC(=O)[C@H](CN)NC(=O)[C@@H](N)CNC(=O)[C@@H]2CCCN2C(=O)[C@H]([C@@H](C)CC)NC(=O)[C@H]2NC(=O)[C@H]([C@@H](C)CC)NC(=O)[C@@H]3C[C@@H]4CCCC[C@@H]4N3C(=O)[C@@H]3CCCN3C(=O)[C@H](CC(C)C)NC(=O)[C@H](CO)NC(=O)[C@H](CCCNC(=N)N)NC(=O)[C@H](CO)NC(=O)[C@H](CSSC2(C)C)NC1=O [Example 86] (H-[Dap][Dap]ICSRSLP[Oic]I[Pen]IP; lactam 1-C; disulfide 4-12) | –
110 | 8.7 | – | – | 8.68 | CC[C@H](C)[C@@H]1NC(=O)CCCNC(=O)[C@H](CC(=O)O)NC(=O)[C@@H]2CCCN2C(=O)[C@H]([C@@H](C)CC)NC(=O)[C@@H]2CSSC[C@H](NC1=O)C(=O)N[C@@H](CO)C(=O)N[C@@H](CCCNC(=N)N)C(=O)N[C@@H](CO)C(=O)N[C@@H](CC(C)(C)C)C(=O)N1CCC[C@H]1C(=O)N1CCC[C@H]1C(=O)N[C@@H]([C@@H](C)CC)C(=O)N2C [Example 36] | –
63.5 | 22 | – | – | 121 | CC[C@H](C)[C@@H]1NC(=O)[C@H](C)NC(=O)CCCCCNC(=O)[C@H](CC(=O)O)NC(=O)[C@@H]2CCCN2C(=O)[C@H]([C@@H](C)CC)NC(=O)[C@@H]2CSSC[C@H](NC1=O)C(=O)N[C@@H](CO)C(=O)N[C@@H](CCCNC(=N)N)C(=O)N[C@@H](CO)C(=O)N[C@@H](CC(C)(C)C)C(=O)N1CCC[C@H]1C(=O)N1CCC[C@H]1C(=O)N[C@@H]([C@@H](C)CC)C(=O)N2C [Example 32] (cyclo(AICSRS[tBuAla]PPI[NMeC]IPD[Ahx]); disulfide 3-11) | –
